In US20260327250A1, “3-ETHYLAMINO-INDOLE DIMERS AS SEROTONERGIC AGENTS USEFUL FOR THE TREATMENT OF DISORDERS RELATED THERETO” (MINDSET PHARMA INC., priority 2022, published 2026):
“Also recorded” adds a separate entry of the source.

Key:
in vitro = settings: human, liver microsomes, Remaining Percentage after 60 min, human liver microsomes, without cofactors
Experimental: (§1) The concentrations of parent compounds in reaction systems were evaluated by LC-MS/MS for estimating the stability in pooled human, male rat and male mouse liver microsomes. The in vitro intrinsic clearances of test compounds were determined as well. Protocol
(§2) A master solution in the “Incubation Plate” containing phosphate buffer, ultra-pure H2O, MgCl2 solution and liver microsomes was made according to Table 6. The mixture was pre-warmed at 37° C. water bath for 5 minutes.
(§3) The reaction was started with the addition of 4 μL of 200 μM exemplary test compounds of the application or control compounds to each master solution to get the final concentration of 2 μM. This study was performed in duplicate.
(§4) Aliquots of 50 μL were taken from the reaction solution at 0, 15, 30, 45 and 60 minutes. The reaction solutions were stopped by the addition of 4 volumes of cold methanol with IS (100 nM alprazolam, 200 nM imipramine, 200 nM labetalol and 2 μM ketoprofen). Samples were centrifuged at 3,220 g for 40 minutes. Aliquot of 90 μL of the supernatant was mixed with 90 μL of ultra-pure H2O and then was used for LC-MS/MS analysis.
(§5) All calculations were carried out using Microsoft Excel. Peak area ratios of test compound to internal standard (listed in the below table) were determined from extracted ion chromatograms.
(§6) All calculations were carried out using Microsoft Excel. Peak areas were determined from extracted ion chromatograms. The slope value, k, was determined by linear regression of the natural logarithm of the remaining percentage of the parent drug vs. incubation time curve.
(§7) The in vitro half-life (in vitro t½) was determined from the slope value:
(§8) Conversion of the in vitro t½ (min) into the in vitro intrinsic clearance (in vitro CLint, in μL/min/mg proteins) was done using the following equation (mean of duplicate determinations):

[1] = Rat liver microsomes stability; settings: Remaining Percentage after 60 min
Experimental: as §1, §2, §3, §4, §5, §6, §7, §8

[2] = Mouse liver microsomes stability; settings: Remaining Percentage after 60 min
Experimental: as §1, §2, §3, §4, §5, §6, §7, §8

Caco-2 cell monolayers = test: Intestinal mucosal permeation using Caco-2 cell monolayers; settings: for Efflux ratio: Papp (B→A) / Papp (A→B); for Efflux ratio / Percentage recovery A→B / Percentage recovery B→A: 120 min, 5 µM; for Papp A→B / Percentage recovery A→B: apical to basolateral; for Papp A→B / Papp B→A: 5 μM, 37° C., 2 hours, pH 7.4; for Papp B→A / Percentage recovery B→A: basolateral to apical
Experimental: The Caco-2 cell culture medium was prepared consisting of Dulbecco's Modified Eagle's Medium (DMEM) with high glucose and L-glutamine supplemented with 10% FBS, 1× penicillin-streptomycin mixture and 1× non-essential amino acids (NEAA). • 2. The 50 μL of culture medium was added to each well of the Transwell insert. Transwell insert was removed from reservoir and 25 mL of culture medium was added. • 3. Incubated at 37° C., 5% CO2 for 1 hour. Plates were ready for cell seeding. • 4. The cells were cultivated in T-75 flasks in a cell culture incubator set at 37° C., 5% CO2, 95% relative humidity. The cells were allowed to reach 80-90% confluence before detaching and splitting. • 5. The cultivated cells were rinsed in T-75 flasks with 5 mL PBS. Aspirated off, 1.5 mL trypsin/EDTA was added, and incubated at 37° C. for approximately 5 to 10 minutes or until the cells detach and float. Trypsin/EDTA was inactivated by adding excess serum containing medium. • 6. The cell suspension was moved to a conical tube and cells were pelleted by centrifugation at 120×g for 10 minutes. • 7. The cells were resuspended in seeding medium at a density of 6.86×10^5 cells/mL. This cell concentration can be used to seed 2.40×10^5 cells/cm^2. […] Seeding and Feeding of Caco-2 Cells in Transwell Plates • 1. 50 μL of above cell suspension was added to each well of a previously prepared Transwell plate. • 2. The plate was incubated for 14-18 days. The medium was replaced every other day, beginning no sooner than 48 hours after initial plating. • 3. The procedure for medium changes was as follows. The plate was removed from incubator and placed in hood. The medium was aspirated from reservoir and each Transwell insert. 75 μL of culture medium was added to each well of Transwell inserts and 25 mL of culture medium was added to reservoir tray. The plate was returned to incubator.
When the 14-day Caco-2 cultured cells have reached confluence and are differentiated, they were ready to be used for transport studies. • 2. The medium was removed from reservoir and Transwell inserts. • 3. 75 μL of pre-warmed culture medium was added to each transwell insert and 25 mL of reservoir tray. • 4. The electrical resistance across the monolayer was measured using automated tissue resistance measuring system (World Precision Instruments, Sarasota, FL). • 5. The electrical resistance was recorded for each well. • 6. Once all wells were measured, the plate was returned to incubator. • 7. TEER of each well was calculated by the equation below. The TEER value of each well should be greater than 230 ohms-cm^2. TEER measurement (ohms)×Area of membrane (cm^2)=TEER value (ohm-cm^2)
The Caco-2 plate was removed from the incubator. Next, the monolayer was washed, and the volume exchanged two times using pre-warmed HBSS (10 mM HEPES, pH 7.4). Then the plate was incubated for 30 minutes at 37° C. • 1 mM stock solutions of control compounds and test compound(s) were prepared in DMSO and diluted with HBSS (10 mM HEPES, pH 7.4) to reach the final concentration of 5 μM. The final concentration of DMSO in the incubation system was 0.5%. Digoxin, prazosin and propranolol were used as control compounds in this assay. • 3. HBSS (10 mM HEPES, pH 7.4) was removed after 30 minutes pre-incubation. • 4. The rate of drug transport was incubated in the apical to basolateral direction. 75 μL of the control compounds and test compound was added to the Transwell insert (apical compartment). The wells were filled in the receiver plate (basolateral compartment) with 235 μL of HBSS (10 mM HEPES, pH 7.4). • 5. The rate of drug transport was determined in the basolateral to apical direction. 235 μL of the control compounds and test compound(s) was added to the receiver plate wells (basolateral compartment). The Transwell insert (apical compartment) was filled with 75 μL of HBSS (10 mM HEPES, pH 7.4). • 6. […] Incubated at 37° C. for 2 hours. • 8.

5-HT2 receptor = settings: rat brain, daily administration; cited from earlier work
[3] = system: brain's default mode network; settings: humans, intravenous; cited from earlier work
[4] = patients; psilocybin-assisted psychotherapy or supportive setting; cited from earlier work
[5] = EEG during sleep; cited from earlier work

Experimental for Dog plasma stability: (§9) The stock solution of test compound was prepared in DMSO and diluted at the final concentration of 200 μM.
(§10) • a. 2.5 μL of 200 μM or 1 mM test compound or control compound solution was spiked to 497.5 μL plasma to reach a final concentration of 1 μM or 5 μM. The final concentration of organic solvents was 0.5%. The assay was performed in duplicated. • b. The reaction samples were incubated at 37° C. at approximately 60 rpm in a water bath. • c. Aliquots of 50 μL were taken from the reaction samples at 0, 30, 60, 120, 180 and 240 minutes. The reaction was stopped by the addition of 7 volumes of cold acetonitrile containing internal standards (IS: 100 nM alprazolam, 200 nM imipramine, 200 nM labetalol and 2 μM ketoprofen). • d. All samples were vortexed for 2 minutes, followed by centrifugation at 3,220 g for 30 minutes to precipitate proteins. 100 μL of the supernatant was transferred to a new plate. The supernatant was diluted with ultrapure water according to the LC-MS signal response and peak shape.
(§11) Samples were Analyzed by LC-MS/MS. • LC system: Shimadzu • MS analysis: Triple Quad™ 6500+ from AB Inc (Canada) with an ESI interface • Column temperature: 40° C. • Column: Xselect® Hss T3 2.5μ (2.1×30 mm) coupled with preguard column • Mobile phase: 0.1% formic acid in water (A) and 0.1% formic acid in acetonitrile (B)
(§12) All calculations were carried out using Microsoft Excel. Remaining percentages of parent compounds at each time point were estimated by determining the peak area ratios from extracted ion chromatograms.
Experimental for Human plasma stability: as §9, §10, §11, §12
Experimental for Mouse plasma stability: as §9, §10, §11, §12
Experimental for Rat plasma stability: as §9, §10, §11, §12

O=C(O)Cc1ccccc1Nc1c(Cl)cccc1Cl [Diclofenac] showed a remaining at 1 h, 2 µM (in vitro) of 95.9%, a remaining at 1 h, 2 µM ([1]; with cofactors) of 7.11% and a remaining at 1 h, 2 µM ([1]; without cofactors) of 97.9%. For the same compound, the remaining at 1 h, 2 µM ([2]; with cofactors) was 35.9% and the remaining at 1 h, 2 µM ([2]; without cofactors) was 97.9%.
In the case of C[C@H]1O[C@@H](O[C@H]2[C@@H](O)C[C@H](O[C@H]3[C@@H](O)C[C@H](O[C@H]4CC[C@@]5(C)[C@H](CC[C@@H]6[C@@H]5C[C@@H](O)[C@]5(C)[C@@H](C7=CC(=O)OC7)CC[C@]65O)C4)O[C@@H]3C)O[C@@H]2C)C[C@H](O)[C@@H]1O [Digoxin], the Efflux ratio (Caco-2 cell monolayers) is reported as 35.38, the “Papp A→B” value (Caco-2 cell monolayers) is reported as 0.53 cm/s × 10^−6 and the “Percentage recovery A→B” value (Caco-2 cell monolayers) is reported as 86.58%. The “Papp B→A” value (Caco-2 cell monolayers) was 18.89 cm/s × 10^−6 and the “Percentage recovery B→A” value (Caco-2 cell monolayers) was 104.27%.
For CCN(CC)C(=O)[C@@H]1C=C2c3cccc4[nH]cc(c34)C[C@H]2N(C)C1 [LSD], the 5-HT2 receptor density (5-HT2 receptor) is given as “selectively decreased 5-HT2 receptor density in the rat brain; also recorded: reduce 5-HT2 receptor density in rat brain”, the oscillatory power [3] is given as “decreases in oscillatory power in areas of the brain's default mode network” and the “relief of depression and anxiety” value [4] is given as “significant and sustained anti-depressant and anxiolytic effects”. The sleep patterns [5] was “positively affect sleep patterns”.
For CC[C@H](C)C(=O)O[C@H]1C[C@@H](C)C=C2C=C[C@H](C)[C@H](CC[C@@H]3C[C@@H](O)CC(=O)O3)[C@H]21 [Lovastatin, reference compound], the “Remaining Percentage” value (Rat plasma stability; rat plasma, 0 min) was 100.00%, the remaining at 0.5 h (Rat plasma stability; rat, plasma) was 0% and the remaining at 1 h (Rat plasma stability; rat, plasma) was 0%. For the same compound, the remaining at 2 h (Rat plasma stability; rat, plasma) was 0%, the remaining at 3 h (Rat plasma stability; rat, plasma) was 0% and the remaining at 4 h (Rat plasma stability; rat, plasma) was 0%. For the same compound, the “Remaining Percentage” value (Dog plasma stability; dog plasma, 0 min) was 100.00%, the remaining at 0.5 h (Dog plasma stability; dog, plasma) was 101% and the remaining at 1 h (Dog plasma stability; dog, plasma) was 64.8%. The remaining at 2 h (Dog plasma stability; dog, plasma) was 40.8%, the remaining at 3 h (Dog plasma stability; dog, plasma) was 22.4% and the remaining at 4 h (Dog plasma stability; dog, plasma) was 11%.
With COc1cc2nc(N3CCN(C(=O)c4ccco4)CC3)nc(N)c2cc1OC [Prazosin] the Efflux ratio (Caco-2 cell monolayers) was 3.28, the “Papp A→B” value (Caco-2 cell monolayers) was 10.14 cm/s × 10^−6 and the “Percentage recovery A→B” value (Caco-2 cell monolayers) was 79.47%. For the same compound, the “Papp B→A” value (Caco-2 cell monolayers) was 33.06 cm/s × 10^−6 and the “Percentage recovery B→A” value (Caco-2 cell monolayers) was 104.81%.
Compound CC(C)[N+](C)(CCOC(=O)C1c2ccccc2Oc2ccccc21)C(C)C [Propantheline, reference compound] has a T1/2 (Human plasma stability; human plasma, 37° C., N.A. if no peak detected at 30 min) of 9.53 min, a remaining at 0.5 h (Human plasma stability; human, plasma) of 18.7% and a remaining at 1 h (Human plasma stability; human, plasma) of 1.28%. For the same compound, the remaining at 3 h (Human plasma stability; human, plasma) was 0%, the remaining at 4 h (Human plasma stability; human, plasma) was 0% and the “Remaining Percentage” value (Mouse plasma stability; mouse plasma, 0 min) was 100.00%. It also gave a T1/2 (Mouse plasma stability; mouse plasma, 37° C., N.A. if no peak detected at 30 min) of 34.36 min, a remaining at 0.5 h (Mouse plasma stability; mouse, plasma) of 65.3% and a remaining at 1 h (Mouse plasma stability; mouse, plasma) of 32.5%. For the same compound, the remaining at 2 h (Mouse plasma stability; mouse, plasma) was 9.12%, the remaining at 3 h (Mouse plasma stability; mouse, plasma) was 2.9% and the remaining at 4 h (Mouse plasma stability; mouse, plasma) was 0.87%.
For CC(C)NCC(O)COc1cccc2ccccc12 (stereo not drawn) [Propranolol], the Efflux ratio (Caco-2 cell monolayers) was 0.69, the “Papp A→B” value (Caco-2 cell monolayers) was 33.5 cm/s × 10^−6 and the “Percentage recovery A→B” value (Caco-2 cell monolayers) was 91.34%. For the same compound, the “Papp B→A” value (Caco-2 cell monolayers) was 23.09 cm/s × 10^−6 and the “Percentage recovery B→A” value (Caco-2 cell monolayers) was 92.59%.
